This is an account of results in patent US9328093B2, “Selective inhibitors of ubiquitin specific protease 7, the pharmaceutical compositions thereof and their therapeutic applications” (HYBRIGENICS SA, priority 2010, dated 2016).

In general, GI50 refers to the concentration giving 50% growth inhibition. By IC50 is commonly meant the concentration that gives 50% inhibition. Higher therefore signals weaker potency.

Like-named read-outs stand apart in the source and are kept apart here.

Experiment [1] concerns HCT116 colon cancer cells. The experiment can be described thus: HCT116 cell viability and proliferation assay (MTS). It counts as cell-based. The settings on record: HCT116, 72 hours, read-out: Cell viability (MTS): HCT116 GI50 Day3. The protocol: HCT116 colon cancer cells were obtained from ATCC (American Type Culture Collection), and maintained in Mc Coy's 5A medium containing 10% FBS, 3 mM glutamine and 1% penicillin/streptomycin. Cells were incubated at 37° C. in a humidified atmosphere containing 5% CO2.
Cell viability was assayed using the MTS technique in 96-well culture plates (CellTiter 96® Aqueous Non-Radioactive Cell Proliferation Assay, Promega) according to the manufacturer's instructions. MTS (3-(4,5-dimethyl-thiazol-2-yl)-5-(3-carboxy-methoxyphenyl)-2-(4-sulfophenyl)-2H-tetra-zolium) is a MTT-derived tetrazolium that is reduced in metabolically active cells into a soluble, cell-permeant formazan. The amount of formazan, detected by its absorbance at 492 nm is proportional to the number of living, metabolically active cells.
10^3 HCT116 cells were seeded per well. 24 hours later, the medium was changed and the cells treated in triplicate with the concentrations of each compound from 100 μM to 50 nM. The compounds were diluted in 100% DMSO, whose final concentration on cells was kept at 0.5%.
Cells were incubated with the compounds for 72 hours, and their viability then assayed by the addition of MTS for 2 hours. Absorbance at 492 nm was measured directly from the 96-well culture plates. Gl50 (Growth Inhibition 50) concentrations for each compound were calculated using a sigmoidal variable slope fit (Prism 4.0, Graphpad Softwares). Values represent mean of three independent experiments.

The target in experiment [2] is T1, USP7 over a panel of active DUBs (Homo sapiens, UniProt Q93009). The experiment can be described thus: HA-Ub-VS labeling of active DUBs in HCT116 cell lysates. Format: biochemical. Also on record: endogenous in cells; host or cells: HCT116 (inducible USP7 shRNA line), non-denaturing lysate. The settings on record: for HA-Ub-VS-USP7 protein level: different doses (100 μM to 3 μM), 2 hours. The source says: (§1) The C-terminally modified vinyl sulfone derivative of ubiquitin, UbVS, was clearly helpful for a direct visualization of active DUBs in cells. This tool, which binds covalently to the cysteine active site of deubiquitinating enzymes, was successfully applied to discover and characterize novel ubiquitin/ubiquitin-like proteases and to profile active deubiquitinating enzymes in normal, virus-infected, and malignant cells (Borodovsky et al., Chem Biol 2002, 9, 1149-1159, Hemelaar et al., Mol Cell Biol 2004, 24, 84-95, Ovaa et al., Proc Natl Acad Sci USA 2004 101, 2253-2258).
T1 sequence (Q93009 whole entry): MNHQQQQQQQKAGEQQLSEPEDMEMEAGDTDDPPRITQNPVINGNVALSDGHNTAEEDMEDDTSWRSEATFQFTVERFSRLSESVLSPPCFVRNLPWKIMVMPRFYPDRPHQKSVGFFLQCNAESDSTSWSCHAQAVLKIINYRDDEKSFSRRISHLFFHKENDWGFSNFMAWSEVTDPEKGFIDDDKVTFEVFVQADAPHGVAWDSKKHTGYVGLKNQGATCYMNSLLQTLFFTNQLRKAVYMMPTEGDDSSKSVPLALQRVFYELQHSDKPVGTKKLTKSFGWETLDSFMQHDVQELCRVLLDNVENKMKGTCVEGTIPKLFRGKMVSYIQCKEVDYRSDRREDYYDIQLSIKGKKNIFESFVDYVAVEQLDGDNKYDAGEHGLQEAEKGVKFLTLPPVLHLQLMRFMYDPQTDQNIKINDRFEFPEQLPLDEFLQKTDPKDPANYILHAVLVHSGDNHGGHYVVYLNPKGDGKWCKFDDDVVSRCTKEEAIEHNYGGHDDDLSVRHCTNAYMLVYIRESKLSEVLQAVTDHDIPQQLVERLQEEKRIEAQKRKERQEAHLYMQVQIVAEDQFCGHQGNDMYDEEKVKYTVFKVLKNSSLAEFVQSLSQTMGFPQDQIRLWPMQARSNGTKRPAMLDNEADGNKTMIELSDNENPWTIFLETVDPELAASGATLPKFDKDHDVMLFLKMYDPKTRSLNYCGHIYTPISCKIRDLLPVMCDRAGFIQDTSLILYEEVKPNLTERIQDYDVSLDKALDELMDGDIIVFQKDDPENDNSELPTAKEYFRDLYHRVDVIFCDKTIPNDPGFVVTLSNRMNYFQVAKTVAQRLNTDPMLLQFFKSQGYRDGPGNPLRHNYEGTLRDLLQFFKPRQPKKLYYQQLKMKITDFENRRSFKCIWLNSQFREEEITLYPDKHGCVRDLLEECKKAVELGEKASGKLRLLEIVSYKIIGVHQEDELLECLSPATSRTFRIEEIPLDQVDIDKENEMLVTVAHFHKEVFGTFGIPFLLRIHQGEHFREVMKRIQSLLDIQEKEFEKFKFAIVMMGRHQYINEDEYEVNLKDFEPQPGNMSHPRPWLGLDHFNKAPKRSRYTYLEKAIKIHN
The HA-Ub-VS probe (Hemagglutin tag-Ubiquitin-Vinyl Sulfone) was used in this study to directly visualize the activity of all deubiquitinating enzymes from cell lysates. This tool was used to evaluate the activity/specificity of our small molecule compounds on USP7 relative to all deubiquitinating enzymes active in physiological conditions.
Inducible USP7 shRNA HCT116 cells (previously treated with or without Doxycycline (2 μg/ml) for 4 days) as well as HEK293 cells were harvested and lysed on ice with a non denaturating buffer containing Tris pH7.4, 50 mM; NaCl, 150 mM; MgCl2, 5 mM; EDTA, 0.5 mM; DTT, 2 mM; ATP, 2 mM; NP40, 0.5% and glycerol, 10%. Samples were incubated at 4° C. for 1 hour and clarified. Proteins were then quantified by Bradford method (Bio-Rad Protein Assay). 25 μg of proteins from native cell lysates were treated with compounds of examples 14 and 5 (from 100 μM to 3 μM) or with NEM (N-Ethylmaleimide, a thiol-reactive compound, 5 mM) for 2 hours at room temperature. The ubiquitin labeling reaction was initiated by the addition of HA-Ub-VS (8 μg/ml) in labeling buffer (Tris pH7.6, 50 mM; MgCl2, 5 mM; EDTA, 0.5 mM; DTT, 2 mM; ATP, 2 mM; sucrose, 250 mM) and incubated at room temperature for 30 min. Samples were next heated at 100° C. for 10 minutes and briefly sonicated. They were resolved by SDS-polyacrylamide gel electrophoresis (SDS-PAGE), transferred to a nitrocellulose membrane and probed with antibodies against USP7 (Bethyl Lab, A300-034A), HA (BabCO, MMS-101P), and actin (Sigma, A2066). Horseradish peroxidase (HRP)-conjugated anti-mouse (Jackson Laboratories, 115-035-003) or HRP-conjugated anti-rabbit (Cell Signaling, 7074) antibodies were used as secondary antibodies. Signals were detected by enhanced chemiluminescence (ECL; Amersham) according to the reagent manufacturer's instructions.

For experiment [3], the target named is T1, USP7 over a panel of active DUBs. The experiment can be described thus: HA-Ub-VS labeling of active DUBs in HEK293 cell lysates. It counts as biochemical. Conditions: different doses.
Description: as §1
The HA-Ub-VS probe (Hemagglutin tag-Ubiquitin-Vinyl Sulfone) was used in this study to directly visualize the activity of all deubiquitinating enzymes from cell lysates. […]
Inducible USP7 shRNA HCT116 cells (previously treated with or without Doxycycline (2 μg/ml) for 4 days) as well as HEK293 cells were harvested and lysed on ice with a non denaturating buffer containing Tris pH7.4, 50 mM; NaCl, 150 mM; MgCl2, 5 mM; EDTA, 0.5 mM; DTT, 2 mM; ATP, 2 mM; NP40, 0.5% and glycerol, 10%. […] Proteins were then quantified by Bradford method (Bio-Rad Protein Assay). […] Signals were detected by enhanced chemiluminescence (ECL; Amersham) according to the reagent manufacturer's instructions.

The next experiment has as its target T2, USP7 (Homo sapiens, UniProt Q93009).
T2 construct: Full-length wild-type human USP7 and its catalytic mutant (cysteine 223 replaced by alanine, C223A) were produced as N-terminally His-tagged fusions; His (N); made in house; host or cells: Spodoptera frugiperda Sf9 (or High Five) insect cells, baculovirus pFastBac-HT-B
As to the kind of experiment: USP7 activity assay (Ub-AMC substrate). Format: biochemical. The settings on record: Ub-AMC 300 nM, USP7 100 pM, 30 min pre-incubation. The source says: The cDNA encoding USP7 was obtained by PCR amplification from placenta mRNA. USP7 cDNA was subcloned by PCR into a baculovirus expression vector (pFastBac-HT; Invitrogen). Full-length wild-type human USP7 and its catalytic mutant (cysteine 223 replaced by alanine, C223A) were produced as N-terminally His-tagged fusions in Spodoptera frugiperda cells (Sf9, Invitrogen), using the Bac-to-Bac Baculovirus system from Invitrogen according to the manufacturer's instructions. pFastBac-HT-B-USP7 was used to transform DH10bac cells (Invitrogen), and blue/white selection was carried out on X-gal/IPTG agar plates. Bacmid DNA was prepared by an alkaline lysis procedure. The integrity of the bacmid minipreps and their orientation were checked by PCR, using generic and specific primers. Sf9 insect cells were cultured in InsectXpress medium (Cambrex) at 27° C. and transfected with the corresponding bacmid, using GeneShuttle 40 (Q-BIOgen). Viruses were recovered in the supernatant 72 h after transfection. Viruses were amplified by infecting insect cells (Sf9 or High Five cells; invitrogen) in 50 ml InsectXpress medium in a 150 cm^2 cell culture flask with 500 μl of the supernatant from transfected Sf9 cells. Following the second round of amplification, infected cells were recovered by rapid SDS lysis, boiled for 5 min at 100° C., sonicated briefly and centrifuged for 20 min at 14,000 g. Expression levels in infected Sf9 cells were compared with those in uninfected cells. Fusion proteins were then allowed to bind to TALON beads (BD Biosciences, TALON metal affinity resin) for 30 min at 4° C. with gentle rocking. Beads were extensively washed (50 mM sodium phosphate buffer pH 7.0, 500 mM NaCl, 10 mM Imidazole, 0.5% Triton X-100 and 10% glycerol) and bound proteins were eluted in wash buffer supplemented with 250 mM Imidazole (Sigma). Eluted fractions were resolved on 4-12% NuPAGE gels (Novex, Invitrogen). Fractions containing high concentrations of purified proteins (purity >95%) were dialyzed (20 mM Tris HCl pH 7.6, 200 mM NaCl, 1 mM DTT, 1 mM EDTA and 10% glycerol) were aliquoted and snap frozen in liquid nitrogen before storage at −80° C.
USP7 was diluted in USP buffer (50 mM Tris HCl; 0.5 mM EDTA; 5 mM DTT; 0.01% Triton X-100; Bovine Serum Albumin 0.05 mg·ml^−1 pH7.6). Compounds stocks (10 mM) were stored at −20° C. in DMSO. Compounds were tested at different concentrations: from 200 μM to 91 nM.
Reactions were performed as duplicates in Black 384 well plates (small volumes microplates; Greiner; 10 μl final reaction volume). The substrate concentration for USP7 was 300 nM Ub-AMC (Chem. Biol., 2003, 10, p. 837-846) (Boston Biochem). The concentrations of the enzyme (USP7) in specificity assays was 100 pM. The concentrations were determined in order to perform specificity assays under initial velocities at fixed substrate concentration. Compounds were pre-incubated with enzymes for 30 minutes at 25° C. Reactions were initiated by addition of substrate to the plates containing the enzymes (+/− compounds) diluted in assay buffer. Reactions were incubated for 60 minutes at 37° C. Reactions were stopped by adding acetic acid (100 mM final). Readings were performed on a Pherastar Fluorescent Reader (BMG). λ
Emission 380 nm; λ Excitation=460 nm. Data (mean values +/− standard deviation) were analyzed as % of control (no compound) and plotted as percentage versus the Log of the compound concentration using GraphPad (Prism). Data were fitted to a sigmoidal model (variable slope).

With `CN(CCCNC(=O)c1ccc2c(Cl)c3c(nc2c1)CCCC3)Cc1ccccc1` [Example 14, 9-Chloro-5,6,7,8-tetrahydro-acridine-3-carboxylic acid [3-(benzyl-methyl-amino)-propyl]-amide], the GI50 in experiment [1] (Homo sapiens, HCT-116, 72 h) was found to be 4.1 µM. Besides, the HA-Ub-VS-USP7 protein level entry was “specific and dose-dependent decrease” in experiment [2]; “also confirmed” in experiment [3]. The “HA-Ub-VS labeled DUB bands after treatment” value in experiment [2] (fixed dose 50 μM, anti-HA immunoblot) is “only one band was decreased”.

As to `CCN(CCCNC(=O)c1ccc2c(Cl)c3c(nc2c1)CCCC3)Cc1ccccc1` [Example 5, 9-Chloro-5,6,7,8-tetrahydro-acridine-3-carboxylic acid [3-(benzyl-ethyl-amino)-propyl]-amide], in experiment [1] (Homo sapiens, HCT-116, 72 h), the GI50 was found to be 4 µM. Besides, the HA-Ub-VS-USP7 protein level entry in experiment [2] was “specific and dose-dependent decrease”; in experiment [3], “also confirmed”.

For the molecule `CCN1C(=O)C=CC1=O` [NEM, N-Ethylmaleimide, reference compound], in experiment [2] (NEM 5 mM), the “HA-Ub-VS labeling of the active form of DUBs” value is listed as “inhibited”.

`CCN(CC)CCNC(=O)c1ccc2c(Cl)c3c(nc2c1)CCCC3` [Example 26, chlorhydrate of 9-chloro-5,6,7,8-tetrahydro-acridine-3-carboxylic acid (2-diethylamino-ethyl)-amide]: the 50% growth inhibitory concentration (GI50) in experiment [1] is 5.6 µM. Further, the half-maximal inhibitory concentration (IC50) against USP7 turned out to be 30.5 µM.
